US20250163387A1, “HUMAN PITUITARY NEUROENDOCRINE TUMOR ORGANOIDS AND METHODS OF MAKING AND USING THE SAME” (ARIZONA BOARD OF REGENTS OF THE UNIVERSITY OF ARIZONA, A …, priority 2022, published 2025)

Columns and labels:
Assay type in all cases: cell-based, human
[1] = system: hPITO37; assay: Spectral flow cytometry (SSTR2, SSTR5, ACTH, zombie); conditions: Mife 2.85 nM
Method: (§1) The multicolor flow cytometry panel was designed using the Cytek®Full Spectrum Viewer online tool to calculate the similarity index. The organoids were harvested in cold SFDM media and centrifuged at 400×g for 5 minutes. Supernatant was discarded and organoids were dissociated to single cells using Accutase® (Thermo Fisher Scientific 00-4555-56). The enzymatic reaction was stopped using prewarmed DPBS and cells were then centrifuged at 400×g for 5 minutes and incubated with fluorochrome-conjugated/unconjugated primary surface or cytoplasmic antibodies at 4° C. for 30 minutes. Cells were then washed with Cell Staining Buffer (BioLegend #420-201) and incubated with secondary antibodies at 4° C. for 30 minutes. Cells were fixed using Cytofix/Cytoperm™ Fixation/Permeabilization Solution (BD Biosciences #554714) at 4° C. for 20 minutes, followed by washing with Fixation/Permeabilization wash buffer. Cells were then labeled with fluorochrome-conjugated/unconjugated intracellular primary antibodies at 4° C. for 30 minutes, washed and incubated with secondary antibodies at 4° C. for 30 minutes. Cells resuspended in cell staining buffer and fluorescence measured using the Cytek Aurora 5 Laser Spectral Flow Cytometer. An unstained cell sample was fixed and used as reference control. UltraComp eBeads™, Compensation Beads (Thermo Fisher Scientific #01-2222-42) were stained with the individual antibodies and used as single stain control for compensation and gating. Data was acquired using the Cytek™ Aurora and analyzed using Cytobank software (Beckman Coulter, Indianapolis, IN).

[2] = system: iPSC^USP48MV organoids; assay: as above; conditions: Rela 500 nM, Mife 500 nM
Method: as §1

[3] = system: iPSC^ctrl organoids; assay: Nuclear irregularity index (NII) morphometric analysis; conditions: 500 nM
Method: (§2) Nuclear Morphometric Analysis (NMA) using treated organoids was performed based on a published protocol that measures cell viability based on the changes in nuclear morphology of the cells using nuclear stain Hoechst or DAPI [30]. Images of organoid nuclei were analyzed using the ImageJ Nuclear Irregularity Index (NII) plugin for key parameters that included cell area, radius ratio, area box, aspect, and roundness. Using the published spreadsheet template, the NII of each cell was calculated with the following formula: NII=Aspect−Area Box+Radius Ratio+Roundness. The area vs NII of vehicle-treated cells were plotted as a scatter plot using the template and considered as the normal cell nuclei. The same plots were generated for each condition, and the NII and area of treated cells were compared to the normal nuclei, and classified as one of the following NMA populations: Normal (N; similar area and NII), Mitotic (S; similar area, slightly higher NII), Irregular (I; similar area, high NII), Small Regular (SR; apoptotic, low area and NII), Senescent (LR; high area, low NII), Small Irregular (SI; low area, high NII), or Large Irregular (LI; high area, high NII). […] The percentage of cells in each NII classification category were calculated and plotted as a histogram using GraphPad Prism.

[4] = system: iPSC^USP48MV organoids; assay: as above; conditions: 500 nM
Method: as §2

[5] = system: SSTR2; assay: Differential expression of SSTR2 in iPSC generated pituitary tumor organoids
[6] = system: hPITO39; assay: Nuclear Morphometric Analysis (NII); conditions: compared to pasireotide and ketoconazole
Method: as §2, with “Prism. […]” for “Prism.”

CC#C[C@]1(O)CC[C@H]2[C@@H]3CCC4=CC(=O)CCC4=C3[C@@H](c3ccc(N(C)C)cc3)C[C@@]21C [Mifepristone]
number of ACTH expressing cells [1]: significantly increased
cell death (Zombie positive cells) ([1]; Pas 837.5 nM, Rela 382 nM): not observed
percentage of SSTR2 positive cells ([1]; Rela 382 nM, vs Veh): significant increase
percentage of SSTR5 positive cells ([1]; Rela 382 nM, vs Veh): significant increase
ACTH positive cells ([2]; Pas 100 nM): significant induction
cell death (Zombie positive cells) ([2]; Pas 100 nM): not observed
percentage of SSTR2 positive cells ([2]; vs Veh): significant increase
percentage of SSTR5 positive cells ([2]; vs Veh): significant increase
apoptotic cells by nuclear morphology (NII) [3]: not observed
apoptotic cells by nuclear morphology (NII) [4]: not observed
expression of SSTR2 ([5]; iPSC organoids (ctrl, USP48MI, USP48MV, USP8), 500 nM, vs vehicle): significant induction
differential expression of SSTR2 ([5]; iPSC^ctrl organoids, drug alone (Mife 500 nM, GANT 5 uM, Keto 10 uM, Dexa 100 nM)): significantly induced
Apoptosis by nuclear morphometric analysis [6]: induced significant apoptosis
